Assay results as given in US20230270753A1, “COMBINATIONS OF GABAA ALPHA 5 AGONISTS AND SV2A INHIBITORS AND METHODS OF USING IN THE TREATMENT OF COGNITIVE IMPAIRMENT” (AGENEBIO, INC., priority 2020, published 2023).
Entries after “also recorded” stand apart in the source; their conditions may differ. Like-named read-outs stand apart in the source and are kept apart here.

Legend:
[1] = format: physicochemical; conditions: solvent-mediated slurries, ambient temperature (Form E also 55° C. and 77° C.)
Protocol: Interconversion experiments were performed to identify the most thermodynamically stable anhydrous form of Compound 1 (Table 19). […] The choice of solvent affects the kinetics of polymorph conversion and not the thermodynamic relationship between polymorphic forms.
Various combinations of Forms B, E, F, and Material D were slurried with Form A at ambient and elevated temperatures (for experiments involving Form E). Different solvent systems were used and included a variety of water activities. Saturated solutions were generated and then added to the mixtures composed of approximately equivalent quantities of the forms. The mixtures were slurried for a particular duration of time and the solids harvested and analyzed by XRPD.

[2] = Dynamic vapor sorption (DVS); format: physicochemical; conditions: for hygroscopicity class: DVS isotherm; for form of the material recovered from the DVS experiment by XRPD: post DVS
Protocol: Dynamic vapor sorption data was collected on a Surface Measurement System DVS Intrinsic instrument. The samples were not dried prior to analysis. Sorption and desorption data were collected over a range from 5% to 95% RH in 10% RH increments under a nitrogen purge. The equilibrium criteria used for the analyses were 0.001 dm/dt weight change in 5 minutes with a minimum step time of 30 minutes and maximum equilibration time of 180 minutes with a 3-minute data logging interval. Data were not corrected for the initial moisture content of the sample. The samples were identified as having low, limited or significant hygroscopicity based on the definitions in the below table.

[3] = Differential scanning calorimetry / thermogravimetry; format: physicochemical; conditions: DSC 10° C./min
Protocol: DSC was performed using a Mettler-Toledo DSC3+ differential scanning calorimeter. A tau lag adjustment is performed with indium, tin, and zinc. The temperature and enthalpy are adjusted with octane, phenyl salicylate, indium, tin and zinc. The adjustment is then verified with octane, phenyl salicylate, indium, tin, and zinc. The sample was placed into a hermetically sealed aluminum DSC pan, the weight was accurately recorded, and the sample was inserted into the DSC cell. A weighed aluminum pan configured as the sample pan was placed on the reference side of the cell. The pan lid was pierced prior to sample analysis. The samples were analyzed from −25° C. to 250° C. at 10° C./min.
Thermogravimetric analyses were performed using a Mettler-Toledo TGA/DSC3+ analyzer. Temperature calibration was performed using calcium oxalate, indium, tin, and zinc. The sample was placed in an aluminum pan. The pan was hermetically sealed, the lid was pierced, and the pan was then inserted into the TG furnace. A weighed aluminum pan configured as the sample pan was placed on the reference platform. The furnace was heated under nitrogen. Samples were analyzed from 25° C. to 350° C. at 10° C./min.

[4] = format: physicochemical
Protocol: XRPD patterns were collected with a PANalytical X'Pert PRO MPD or a PANalytical Empyrean diffractometer using an incident beam of Cu radiation produced using an Optix long, fine-focus source. An elliptically graded multilayer mirror was used to focus Cu Kα X-rays through the specimen and onto the detector. Prior to the analysis, a silicon specimen (NIST SRM 640e) was analyzed to verify the observed position of the Si 111 peak is consistent with the NIST-certified position. A specimen of the sample was sandwiched between 3-μm-thick films and analyzed in transmission geometry. A beam-stop, short antiscatter extension, and antiscatter knife edge were used to minimize the background generated by air. Soller slits for the incident and diffracted beams were used to minimize broadening from axial divergence. Diffraction patterns were collected using a scanning position-sensitive detector (X'Celerator) located 240 mm from the specimen and Data Collector software v. 5.5.

[5] = test system: MAM-treated rats; conditions: cited from earlier work
[6] = test system: Aged-Impaired rats (AI rats); experiment: Radial Arm Maze task, 2-hr delay, acute brivaracetam or seletracetam (Example 4); format: in vivo, rat; conditions: doses 0.0625-4 mg/kg i.p., 30-40 min prior to test; repeated measures ANOVA
From the text: All rats were screened in a standardized assessment of spatial cognition prior to the studies with experimental treatments. That background assessment used a well-established Morris Water Maze protocol. The MWM protocol was substantially the same as the one described in Example 1. See, also, Gallagher et al., Behav. Neurosci. 107:618-626, (1993). Briefly, the rats were trained for eight days (three trials per day) to locate a camouflaged escape platform that remained at the same location throughout training in a water maze. Every sixth trial consisted of a probe trial (free swim with no escape platform) that served to assess the development of a spatially localized search for the escape platform. During these probe trials, a learning index was generated from the proximity of the rat to the escape platform and was used to define impairment in the aged rats. The learning index is the sum of weighted proximity scores obtained during probe trials, with low scores reflecting a search near the escape platform and high scores reflecting searches farther away from the platform (Gallagher et al, 1993). Cue training (visible escape platform) occurred on the last day of training to test for sensorimotor and motivational factors independent of spatial learning. […]

[7] = test system: memory-impaired aged rats; experiment: Water maze after chronic brivaracetam by osmotic mini-pump (Example 4); format: in vivo, rat; conditions: brivaracetam 2 mg/kg/day by osmotic mini-pump, 14 days, probe test
Protocol: The radial arm maze experiments used acute administration of seletracetam (0-4 mg/kg), brivaracetam (0-4 mg/kg), or saline vehicle given by intraperitoneal injection (in a volume of 1 ml/kg) 30-40 min prior to test sessions.
Rats were trained and tested in a novel water maze environment to assess the effect of drug treatment. The water maze used here was housed in a different building and was surrounded by curtains with a novel set of patterns relative to the maze used for initial assessment of cognitive status. The training protocol consisted of 6 trials per day for 2 days to locate a submerged escape platform. On each trial, a rat was released in the maze from one of four equally spaced starting positions around the perimeter of the pool. The starting position varied from trial to trial. […] The rat was then removed from the platform and placed in a holding cage for another 40 s before the next trial. Approximately 24 hr after the last training trial, a probe test in the absence of the escape platform was given to assess spatial memory.

SMILES: COCc1nnc2n1Cc1c(C#Cc3cnc(OC)s3)ncn1-c1ccc(Cl)cc1-2 [Form A]
- relative thermodynamic stability between crystalline forms [1]: more thermodynamically stable than Form B and Material D at ambient temperature and Form E at ambient temperature, 55° C., and 77 °C
- relative thermodynamic stability between crystalline forms ([1]; listed as Form A of Compound 1): superior stability
- hygroscopicity class ([2]; 5% to 95% RH): limited hygroscopicity; also recorded: low hygroscopicity
- weight change through the sorption/desorption cycle ([2]; DVS, 5% to 95% RH): ~0.3%
- form of the material recovered from the DVS experiment by XRPD [2]: identified as the same as the starting material

SMILES: COCc1nnc2n1Cc1c(C#Cc3cnc(OC)s3)ncn1-c1ccc(Cl)cc1-2 [Form B]
- onset of DSC exotherm due to decomposition [3]: about 190 °C
- relative thermodynamic stability between crystalline forms [1]: metastable relative to Form A

SMILES: COCc1nnc2n1Cc1c(C#Cc3cnc(OC)s3)ncn1-c1ccc(Cl)cc1-2 [Form C]
- onset of DSC exotherm due to decomposition [3]: 190 °C
- stability of the form on ambient storage ([4]; 9 weeks under ambient conditions): remain unchanged
- stability of the form on heating ([4]; overnight exposure to 80° C.): desolvate to Form B

SMILES: COCc1nnc2n1Cc1c(C#Cc3cnc(OC)s3)ncn1-c1ccc(Cl)cc1-2 [Form E]
- relative thermodynamic stability between crystalline forms [1]: metastable relative to Form A

SMILES: COCc1nnc2n1Cc1c(C#Cc3cnc(OC)s3)ncn1-c1ccc(Cl)cc1-2 [Form F]
- onset of DSC exotherm due to decomposition [3]: above 120 °C
- stability of the form under vacuum ([4]; 5 days under vacuum at ambient temperature): remain unchanged
- hygroscopicity class ([2]; 5% to 95% RH): limited hygroscopicity
- weight gain on sorption ([2]; DVS, 5-95% RH): 1.8%
- weight loss upon desorption ([2]; DVS, with significant hysteresis): 1.5%
- form of the material recovered from the DVS experiment by XRPD [2]: still Form F

SMILES: COCc1nnc2n1Cc1c(C#Cc3cnc(OC)s3)ncn1-c1ccc(Cl)cc1-2 [Material D]
- relative thermodynamic stability between crystalline forms [1]: metastable relative to Form A
- stability of the form on ambient storage ([4]; 7 weeks of ambient storage, mixture with Form A): Material D still remained

SMILES: C#Cc1ccc2c(c1)C(c1ccccc1F)=N[C@H](C)c1c(C(=O)OCC)ncn1-2 [SH-053-2′F—R—CH3]
- number of spontaneously active DA neurons in the ventral tegmental area (VTA) ([5]; MAM rats, administered systemically or infused into the ventral HPC): reduces the number of spontaneously active DA neurons
- locomotor response to amphetamine ([5]; MAM-treated rats): is reduced

SMILES: CCC[C@@H]1CC(=O)N([C@@H](CC)C(N)=O)C1 [brivaracetam, (2S)-2-[(4R)-2-oxo-4-propylpyrrolidin-1-yl]butanamide]
- number of errors in the retention phase after the 2-hr delay [6]: significant effect as a function of dose
- time in the target annulus vs vehicle-treated rats [7]: significantly more time in the target annulus
- time in the target quadrant vs vehicle-treated rats [7]: significantly more time in the target quadrant
- spatial bias for the target quadrant compared to the other control quadrants ([7]; n=3/group): significant spatial bias

SMILES: CC[C@@H](C(N)=O)N1C[C@H](C=C(F)F)CC1=O [seletracetam, (2S)-2-[(4S)-4-(2,2-difluoroethenyl)-2-oxopyrrolidin-1-yl]butanamide]
- number of errors in the retention phase after the 2-hr delay [6]: significant effect as a function of dose

SMILES: NC1=N[C@H](O)[C@H]2[C@H]3O[C@]4(O)O[C@@H]([C@@H](O)[C@@]2(N1)[C@@H]4O)[C@]3(O)CO [tetrodotoxin]
- DA neuron population activity ([5]; rat, in vivo): completely reversed the elevated DA neuron population activity
- amphetamine-induced locomotor behavior ([5]; rat, in vivo): normalized the augmented amphetamine-induced locomotor behavior
